{"source": "patent US20240109879A1", "about": "“BENZIMIDAZOLE COMPOUND AND APPLICATION THEREOF” (Medshine Discovery Inc., priority 2020, published 2024)", "key": {"p300": {"target": "p300 (Homo sapiens (Human), UniProt Q09472)", "sequence (Q09472 1049-1156)": "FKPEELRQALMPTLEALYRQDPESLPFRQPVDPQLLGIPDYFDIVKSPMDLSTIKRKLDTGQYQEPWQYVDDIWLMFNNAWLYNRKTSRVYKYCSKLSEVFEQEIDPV", "test": "Assay of p300 protein activity (HTRF, p300-GST with Histone H4 (1-21) K5/8/12/16Ac-GG-Biotin peptide ligand)", "type": "binding", "details": "5 nM p300-GST, 50 nM peptide ligand", "procedure": "(§1) Assay Example 1: Assay of p300 and CBP Protein Activity\n(§2) Reaction buffer: 25 mM HEPES, pH 7.5, 25 mM NaCl, 0.025% CHAPS, 0.025% BSA, 0.5% DMSO.\n(§3) Standard Reaction Conditions:\n(§4) 5 nM p300-GST, 50 nM peptide ligand.\n(§5) Reaction Procedure: • 1. 2.5×BRD was added to the wells of a reaction plate, except for control wells without BRD to which buffer was added instead. • 2. Compounds in 100% DMSO were delivered into the BRD mixture by acoustic technology (Echo550; nanoliter range). The plate was spun down. The mixture was incubated at room temperature for 30 min. • 3. 5×peptide ligand was delivered. The plate was spun down. The mixture was incubated at room temperature for 10 min. • 4. 5×HTRF detection mixture was delivered. The plate was spun down and the mixture was incubated in the dark for 2 h. • 5. A measurement of HTRF was performed with an Envision reader (Ex/Em=320/615, 665 nm). • 6. A HTRF ratio was calculated as follows: [em 665 nm/em 615 nm]*10000.\n(§6) The background-subtracted signal (no protein as background) was converted to % bound relative to the DMSO control. Data were analyzed using GraphPad Prism 4 with “sigmoidal dose-response (variable slope)”; and a 4-parameter analysis was performed using Hill slope.\n(§7) Constraints: • Bottom=Constant equal to 0 • Top=Must be less than 120"}, "[1]": {"test": "Pharmacokinetic study in CD-1 mice (intravenous injection and oral gavage)", "type": "in vivo", "details": "male CD-1 mice", "text": "Assay Example 2: Pharmacokinetic Study of Compounds of the Present Disclosure\nCD-1 mice (male, 5-6 weeks old, Shanghai Family Planning Research Institute)\nInjection: To assay pharmacokinetic characteristics of rodents after intravenous injection administration of compounds by a standard protocol. In the assay, candidate compounds were formulated into clear solutions, and administered to mice as a single intravenous injection. The vehicle for the intravenous injection was a mixed vehicle formulated with 5% of dimethyl sulfoxide and 95% of 10% hydroxypropyl β-cyclodextrin. In this assay, two male CD-1 mice were used for intravenous injection administration at a dose of 0.5 mg/kg. Plasma samples were collected at 0.083, 0.25, 0.5, 1, 2, 4, 8 and 24 h after administration. Whole blood samples were collected within 24 hours, and centrifuged at 3000 g for 15 minutes. The supernatants were separated to obtain plasma samples. To the plasma samples was added 20 times volume of acetonitrile solution containing internal standard to precipitate protein. The mixtures were vortexed and centrifuged. The supernatants were taken for injection. Plasma drug concentration was quantitatively analyzed by LC-MS/MS analysis method, and pharmacokinetic parameters (such as clearance (CL), half-life (T1/2), […] (Vdss), area under the drug-time curve (AUC0-last), etc.) were calculated.\nOral: To assay pharmacokinetic characteristics of rodents after oral administration of compounds by a standard protocol. In the assay, candidate compounds were formulated into homogeneous opaque suspensions, and given to the mice for a single oral administration. The vehicle for the oral administration was a mixed vehicle formulated with 5% of dimethyl sulfoxide and 95% of 0.5% methylcellulose. In this assay, two male CD-1 mice were used for oral gavage administration at a dose of 3 mg/kg. Plasma samples were collected at 0.25, 0.5, 1, 2, 4, 8 and 24 h after administration. Whole blood samples were collected within 24 hours, and centrifuged at 3000 g for 15 minutes. The supernatants were separated to obtain plasma samples. To the plasma samples was added 20 times volume of acetonitrile solution containing internal standard to precipitate protein. The mixtures were vortexed and centrifuged. The supernatants were taken for injection. Plasma drug concentration was quantitatively analyzed by LC-MS/MS analysis method, and pharmacokinetic parameters (such as peak concentration (Cmax), half-life (T1/2), area under the drug-time curve (AUC0-last), etc.) were calculated."}, "CBP": {"target": "CBP (Homo sapiens (Human), UniProt Q92793)", "sequence (Q92793 1085-1192)": "as the sequence (Q09472 1049-1156) above, with S47N, I73V, Y93F, S98A counted along it", "test": "Assay of CBP protein activity (HTRF, BRD with acetylated Histone H4 peptide ligand)", "type": "binding", "procedure": "as §1, §2, §3, §4, §5, §6, §7"}}}
{"smiles": "COC1CCC(n2c([C@@H]3C[C@H]4C[C@H]4C(=O)N3c3ccc(F)c(F)c3)nc3cc(-c4c(C)noc4C)ccc32)CC1", "note": "(single isomer, unassigned) [Compound 3B]", "values": [{"measurement": "IC50", "setting": "p300", "result": 2.88, "unit": "nM"}, {"measurement": "Bioavailability F (%)", "setting": "[1]; gavage 3 mg/kg vs intravenous 0.5 mg/kg", "result": 64, "unit": "%"}, {"measurement": "Area under curve (0-inf) AUC0-inf", "setting": "[1]; gavage, 3 mg/kg", "result": 2.606, "unit": "µM·h"}, {"measurement": "Area under curve (0-t) AUC0-last", "setting": "[1]; gavage, 3 mg/kg", "result": 2.577, "unit": "µM·h"}, {"measurement": "Time to peak Tmax", "setting": "[1]; gavage, 3 mg/kg", "result": 45, "unit": "min"}, {"measurement": "half-life T1/2", "setting": "[1]; gavage, 3 mg/kg", "result": 67.2, "unit": "min"}, {"measurement": "Cmax", "setting": "[1]; gavage, 3 mg/kg, read-out: Plasma drug concentration Cmax", "result": 697, "unit": "nM"}, {"measurement": "Apparent distribution volume Vdss", "setting": "[1]; intravenous, 0.5 mg/kg", "result": 1.65, "unit": "L/kg"}, {"measurement": "Area under curve (0-inf) AUC0-inf", "setting": "[1]; intravenous, 0.5 mg/kg", "result": 0.676, "unit": "µM·h"}, {"measurement": "Area under curve (0-t) AUC0-last", "setting": "[1]; intravenous, 0.5 mg/kg", "result": 0.665, "unit": "µM·h"}, {"measurement": "Clearance Cl", "setting": "[1]; intravenous, 0.5 mg/kg", "result": 23.3, "unit": "mL/min/kg"}, {"measurement": "half-life T1/2", "setting": "[1]; intravenous, 0.5 mg/kg", "result": 59.4, "unit": "min"}, {"measurement": "IC50", "setting": "CBP", "result": 0.67, "unit": "nM"}]}
{"smiles": "COC1CCC(n2c([C@H]3C[C@@H]4C[C@@H]4C(=O)N3c3ccc(F)c(F)c3)nc3cc(-c4c(C)noc4C)ccc32)CC1", "note": "(single isomer, unassigned) [Compound 3C]", "values": [{"measurement": "IC50", "setting": "p300", "result": 14.1, "unit": "nM"}]}
{"smiles": "Cc1noc(C)c1-c1ccc2c(c1)nc([C@H]1CCCC(=O)N1c1ccc(F)c(F)c1)n2C1CC2C(C1)C2(F)F", "note": "(some centres unmarked) [Compound 2B]", "values": [{"measurement": "IC50", "setting": "p300", "result": 3.54, "unit": "nM"}, {"measurement": "IC50", "setting": "CBP", "result": 0.67, "unit": "nM"}]}
{"smiles": "COC1CCC(n2c([C@@H]3CN(C)C(=O)N3c3ccc(F)c(F)c3)nc3cc(-c4c(C)noc4C)ccc32)CC1", "note": "(some centres unmarked) [Compound 4A]", "values": [{"measurement": "IC50", "setting": "p300", "result": 11.3, "unit": "nM"}]}
